The text below walks through data of PMC9501899 (Journal of the American Chemical Society, 2022).

For one series, the system named is LRRK2. As to the kind of experiment: Western blot screening of PROTACs in WT and G2019S LRRK2 MEFs. The series is classed as cell-based, mouse. Here is the method:
These PROTACs were then biologically evaluated in mouse embryonic fibroblasts (MEFs) by Western blotting. Briefly, MEFs were treated with compounds at 33 nM and 1 μM for 4 h (Figure 2) and 24 h (Figure S2) separately, and the intracellular level of LRRK2, phosphorylated LRRK2 at Ser935, and phosphorylated Rab10 (pRab10) at Thr73 was determined. Rab10[5],[49] is one of the bona fide substrates of LRRK2, whose phosphorylation status is directly affected by the LRRK2 kinase activity and protein level. Phosphorylation of LRRK2 at Ser935 is a well-studied biomarker site used to assess the efficacy of type 1 LRRK2 inhibitors.[30]
Primary MEFs were generated as described in a previous study.[80] Briefly, the uterine horn was collected from adult female mice at day E12.5 and transferred to a 10 cm tissue culture dish containing cold PBS. Two forceps were used to tear the yolk sacs to isolate each embryo. Forceps were cleaned thoroughly with 70% ethanol between each embryo isolation. The embryos were culled, and a tissue piece was collected in a polymerase chain reaction (PCR) tube for genotyping. The red tissue of the embryo was removed, and the remainder was minced with a scalpel blade and incubated with a 7.5 mL trypsin–ethylenediaminetetraacetic acid (EDTA) solution for 10 min in a 37 °C, 5% CO2 tissue culture incubator. The dish was removed from the incubator and checked under a light microscope for single cells. Complete media (7.5 mL) was added to the trypsinized cells, and the cell suspension was transferred to a 15 mL Falcon tube and centrifuged at 1200 rpm for 5 min at room temperature. The trypsin was aspirated, the cell pellet was resuspended in a 5 mL fresh complete media, and the cell suspension was plated in a 60 mm tissue culture dish and incubated in a 37 °C, 5% CO2 tissue culture incubator. The MEFs at this stage were considered as passage 0 and were passaged and expanded for experimental use once the genotype was confirmed by allelic sequencing and immunoblotting. MEFs were cultured in Dulbecco’s modified Eagle’s medium (DMEM) containing 10% (v/v) fetal bovine serum (FBS), 2 mM L-glutamine, 100 U/mL penicillin, and 100 μg/mL streptomycin supplemented with 1× nonessential amino acids and 1 mM sodium pyruvate.
Culturing and passaging of adherent cell lines were carried out using an aseptic technique in CL1 or CL2 (for PBMC isolation) biological safety cabinets. All cells were incubated in a 37 °C incubator with 5% CO2. Cell lines were regularly tested for mycoplasma contamination. For Western blot assay, the cells were seeded in six-well plates.

The test system of the next series is pRab10. Description: Rab10 dephosphorylation in R1441C LRRK2 MEFs. As to conditions: Mus musculus, 4 h, read-out: EC50s (pRab10). The series is classed as cell-based. From the text:
Primary MEFs were generated as described in a previous study.[80] Briefly, the uterine horn was collected from adult female mice at day E12.5 and transferred to a 10 cm tissue culture dish containing cold PBS. Two forceps were used to tear the yolk sacs to isolate each embryo. Forceps were cleaned thoroughly with 70% ethanol between each embryo isolation. The embryos were culled, and a tissue piece was collected in a polymerase chain reaction (PCR) tube for genotyping. The red tissue of the embryo was removed, and the remainder was minced with a scalpel blade and incubated with a 7.5 mL trypsin–ethylenediaminetetraacetic acid (EDTA) solution for 10 min in a 37 °C, 5% CO2 tissue culture incubator. The dish was removed from the incubator and checked under a light microscope for single cells. Complete media (7.5 mL) was added to the trypsinized cells, and the cell suspension was transferred to a 15 mL Falcon tube and centrifuged at 1200 rpm for 5 min at room temperature. […]
Culturing and passaging of adherent cell lines were carried out using an aseptic technique in CL1 or CL2 (for PBMC isolation) biological safety cabinets. […] The cell pellet was discarded, and the supernatant was collected for analysis by quantitative immunoblotting. […] Protein concentrations of cell lysates were determined using the Bradford assay. […]

For a further series, the target named is T1, LRRK2-NanoLuc (Homo sapiens, UniProt Q5S007).
T1 construct: host or cells: HEK293
Description: NanoBRET binary LRRK2 binding in HEK293 lysate. As to conditions: compound alone, lysate of HEK293 cells, LRRK2 tracer. As for the experimental part:
In the maximum signal control samples (DMSO control), DMSO was added instead of testing compounds.
For orientation: In BRET a luciferase serves as donor, and the signal depends on an acceptor being close.

Another series in a line: Caco-2 cell permeability. Conditions: human. Format: in vitro ADME. As for the experimental part: Caco-2 cells with transepithelial electrical resistance (TEER) (TEER = (resistance sample – resistance blank) × effective membrane area) = 450 ± 19 Ω cm^2were used for the experiment. Compounds were dissolved in the appropriate buffer (10 mM DMSO stock solutions were diluted with HBSS buffer to a final concentration of 10 μM testing compound and 0.4% DMSO, Lucifer Yellow was introduced in the apical side buffer to test the intactness of the monocell layer) and was applied to the apical or basolateral donor side for measuring A–B or B–A permeability (two replicates), respectively. The apical and basolateral plates were prewarmed to 37 °C before placing the apical plate onto the basolateral plate. After incubating at 37 °C for 90 min, the apical plate and basolateral plate were separated, and the donor or receiver samples were analyzed with UPLC-MS/MS.
On the technique in general: Passage across Caco-2 layers is used to estimate intestinal permeability.

The next series deals with Rab10-pThr73. As to the kind of experiment: Rab10 dephosphorylation in G2019S LRRK2 MEFs by Western blotting. The series is classed as cell-based, mouse. As to conditions: 0.3 µM. In general terms: A western blot detects proteins with antibodies after separation by electrophoresis.

T1 sequence (Q5S007 whole entry): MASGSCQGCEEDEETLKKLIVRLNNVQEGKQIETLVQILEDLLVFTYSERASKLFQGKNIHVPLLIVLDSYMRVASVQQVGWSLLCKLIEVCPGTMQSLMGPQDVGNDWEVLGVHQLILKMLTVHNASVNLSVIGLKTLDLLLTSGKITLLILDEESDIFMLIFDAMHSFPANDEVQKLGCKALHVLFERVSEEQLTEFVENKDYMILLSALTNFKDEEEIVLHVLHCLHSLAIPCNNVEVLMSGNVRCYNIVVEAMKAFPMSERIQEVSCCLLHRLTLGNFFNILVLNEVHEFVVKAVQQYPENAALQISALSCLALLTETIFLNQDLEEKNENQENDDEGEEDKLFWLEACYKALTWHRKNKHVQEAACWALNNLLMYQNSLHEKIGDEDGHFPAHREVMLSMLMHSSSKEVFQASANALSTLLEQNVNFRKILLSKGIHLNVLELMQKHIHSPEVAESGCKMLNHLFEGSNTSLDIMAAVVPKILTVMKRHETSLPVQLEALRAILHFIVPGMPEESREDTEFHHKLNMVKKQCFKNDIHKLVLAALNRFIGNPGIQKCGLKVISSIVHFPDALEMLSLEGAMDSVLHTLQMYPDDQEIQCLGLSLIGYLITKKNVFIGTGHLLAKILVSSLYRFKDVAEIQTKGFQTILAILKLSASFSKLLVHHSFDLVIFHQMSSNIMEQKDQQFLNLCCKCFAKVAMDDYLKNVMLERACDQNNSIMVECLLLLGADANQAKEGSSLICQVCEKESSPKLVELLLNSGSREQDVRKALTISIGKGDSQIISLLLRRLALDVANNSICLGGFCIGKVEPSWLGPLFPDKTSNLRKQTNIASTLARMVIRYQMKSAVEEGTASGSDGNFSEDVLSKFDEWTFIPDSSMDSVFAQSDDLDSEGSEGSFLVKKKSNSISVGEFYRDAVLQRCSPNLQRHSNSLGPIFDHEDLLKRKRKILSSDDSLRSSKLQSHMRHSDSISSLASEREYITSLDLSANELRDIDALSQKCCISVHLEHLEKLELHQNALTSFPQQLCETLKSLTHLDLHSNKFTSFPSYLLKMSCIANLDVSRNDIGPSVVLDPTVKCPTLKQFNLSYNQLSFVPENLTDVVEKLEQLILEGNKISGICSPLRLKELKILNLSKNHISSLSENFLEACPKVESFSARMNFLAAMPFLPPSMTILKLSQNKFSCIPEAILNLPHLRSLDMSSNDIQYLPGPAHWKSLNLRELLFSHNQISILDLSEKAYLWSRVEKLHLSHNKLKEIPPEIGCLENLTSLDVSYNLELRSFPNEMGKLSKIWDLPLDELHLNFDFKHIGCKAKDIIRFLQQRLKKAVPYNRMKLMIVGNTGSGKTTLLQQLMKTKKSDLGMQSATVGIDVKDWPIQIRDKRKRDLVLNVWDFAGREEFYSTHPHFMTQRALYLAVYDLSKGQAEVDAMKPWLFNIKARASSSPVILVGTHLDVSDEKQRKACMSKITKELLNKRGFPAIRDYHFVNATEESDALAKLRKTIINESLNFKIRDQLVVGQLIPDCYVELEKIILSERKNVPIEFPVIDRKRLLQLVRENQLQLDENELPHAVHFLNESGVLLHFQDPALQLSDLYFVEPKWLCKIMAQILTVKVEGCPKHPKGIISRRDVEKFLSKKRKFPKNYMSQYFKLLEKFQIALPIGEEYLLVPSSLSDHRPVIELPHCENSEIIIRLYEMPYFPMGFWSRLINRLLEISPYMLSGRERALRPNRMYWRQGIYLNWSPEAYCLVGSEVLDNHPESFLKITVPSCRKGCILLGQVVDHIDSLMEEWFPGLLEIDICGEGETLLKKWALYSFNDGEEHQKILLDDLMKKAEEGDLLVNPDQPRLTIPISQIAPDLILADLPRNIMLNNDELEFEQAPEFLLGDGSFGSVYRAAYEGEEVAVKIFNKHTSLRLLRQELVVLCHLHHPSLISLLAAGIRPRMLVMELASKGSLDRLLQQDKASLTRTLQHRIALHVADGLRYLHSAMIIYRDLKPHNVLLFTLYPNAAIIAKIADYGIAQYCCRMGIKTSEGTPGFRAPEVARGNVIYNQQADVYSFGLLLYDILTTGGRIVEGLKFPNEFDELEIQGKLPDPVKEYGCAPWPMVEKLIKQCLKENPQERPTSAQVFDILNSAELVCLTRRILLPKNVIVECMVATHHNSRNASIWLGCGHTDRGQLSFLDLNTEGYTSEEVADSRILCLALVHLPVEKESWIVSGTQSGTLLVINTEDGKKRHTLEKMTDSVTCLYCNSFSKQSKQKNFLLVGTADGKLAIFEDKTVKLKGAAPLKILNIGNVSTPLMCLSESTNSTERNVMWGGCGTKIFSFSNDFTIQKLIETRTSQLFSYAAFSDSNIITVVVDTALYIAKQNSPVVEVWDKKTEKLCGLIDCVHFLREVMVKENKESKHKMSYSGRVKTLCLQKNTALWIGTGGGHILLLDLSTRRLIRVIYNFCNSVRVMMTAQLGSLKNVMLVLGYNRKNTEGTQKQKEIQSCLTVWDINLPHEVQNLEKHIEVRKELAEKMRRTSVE

Take `CNc1nc(Nc2ccc(C(=O)N3CCN(CCOCCOCCSC(C)(C)[C@H](NC(=O)C4(F)CC4)C(=O)N4C[C@H](O)C[C@H]4C(=O)NCc4ccc(-c5scnc5C)cc4)CC3)cc2OC)ncc1Cl` [SD75]: in the series on LRRK2 (0.033 µM), the “degradation of LRRK2” value was below 40%. Further, the “degradation of LRRK2 (in words)” value in the series with LRRK2 (33 nM/4 h, WT and G2019S LRRK2 MEFs) is listed as “little to no degradation”.

For the compound `CNc1nc(Nc2ccc(C(=O)N3CCN(C[C@H]4CC[C@H](CSC(C)(C)[C@H](NC(=O)C5(F)CC5)C(=O)N5C[C@H](O)CC5C(=O)NCc5ccc(-c6scnc6C)cc5)CC4)CC3)cc2OC)ncc1Cl` (stereo partly drawn) [XL01126, (2S,4R)-1-((R)-3-((((1R,4R)-4-((4-(4-((5-Chloro-4-(methylamino)pyrimidin-2-yl)amino)-3-methoxybenzoyl)piperazin-1-yl)methyl)cyclohexyl)methyl)thio)-2-(1-fluorocyclopropane-1-carboxamido)-3-methylbutanoyl)-4-hydroxy-N-(4-(4-methylthiazol-5-yl)benzyl)pyrrolidine-2-carboxamide], the EC50 with pRab10 is 30 nM. For the same compound, at LRRK2-NanoLuc, the IC50 (in general, the concentration at which inhibition is half-maximal) was found to be 2000 nM. For the same compound, the Papp A→B (as a rule, how fast a substance crosses the layer from the apical side) at 90 min, 10 µM in the series “Caco-2 cell permeability” (A–B) was below 0.74 ×10⁻⁶ cm/s. For the same compound, the Papp B→A (commonly how fast a substance crosses the layer from the basolateral side) at 90 min, 10 µM in “Caco-2 cell permeability” (B–A) is below 1.43 ×10⁻⁶ cm/s. Further, in the series with Rab10-pThr73, the “GS-pRab10 percent label at the end of the time curve” value was 92%.

Consider `CNc1nc(Nc2ccc(C(=O)N3CCN(C[C@H]4CC[C@@H](CSC(C)(C)[C@H](NC(=O)C5(F)CC5)C(=O)N5C[C@H](O)CC5C(=O)NCc5ccc(-c6scnc6C)cc5)CC4)CC3)cc2OC)ncc1Cl` (stereo partly drawn) [XL01134], for which, in the series on Rab10-pThr73, the “GS-pRab10 percent label at the end of the time curve” value amounted to 87%.

With `CNc1nc(Nc2ccc(C(=O)N3CCN(C[C@H]4CC[C@H](CSC(C)(C)[C@H](NC(=O)C5(F)CC5)C(=O)N5C[C@@H](O)C[C@H]5C(=O)NCc5ccc(-c6scnc6C)cc5)CC4)CC3)cc2OC)ncc1Cl` [cis-XL01126, (2S,4S)-1-((R)-3-((((1R,4R)-4-((4-(4-((5-Chloro-4-(methylamino)pyrimidin-2-yl)amino)-3-methoxybenzoyl)piperazin-1-yl)methyl)cyclohexyl)methyl)thio)-2-(1-fluorocyclopropane-1-carboxamido)-3-methylbutanoyl)-4-hydroxy-N-(4-(4-methylthiazol-5-yl)benzyl)pyrrolidine-2-carboxamide], the EC50 in the series with pRab10 was 158 nM.
